The experiment concerns mice. Description: Neuropharmacological Assay (SmartCube): automated behavioral signature of compound-treated mice compared with a database of reference drug classes. In kind it is in vivo. As to conditions: for minimal effective dose: Mus musculus, ip, read-out: MED (minimal effective dose); for minimal effective dose / MED (minimal effective dose): dose having 45% or more total activity in SmartCube, i.p., if only one dose was tested, that dose is shown; for AD / AG / AN / AX / CE / HL / MS / PS / SH / UK / AP: probability that activity matches this class of agents, 3.0 mg/kg i.p., 15 min before test. The method, boiled down: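 Probabilities reflect how closely the digitally recorded behavioural signature at 3.0 mg/kg i.p. matched each reference class (antipsychotic, anxiolytic, antidepressant etc.). Dosing occurred 15 min before testing. Minimal effective dose was the dose giving 45% or more total activity.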

SMILES strings stand for the structures. Where a name gives a salt, the structure may show the parent alone. Bounds are passed on as bounds.

In general, minimal effective dose refers to the lowest level tested that produced the effect sought.

Turning to `CCc1scc2c1CC(NC)CC2` (single isomer, unassigned) [Compound 115, 3-ethyl-N-methyl-4,5,6,7-tetrahydro-2-benzothiophen-5-amine hydrochloride], the minimal effective dose was 3 mg/kg, the AD entry was “ND (^ <4%)”, the AG result is on record as “ND (^ <4%)” and the AN result was “ND (^ <4%)”. In addition, the AX result is on record as “ND (^ <4%)”, the CE entry was “ND (^ <4%)”, the HL result was “ND (^ <4%)” and the MS result is reported as “ND (^ <4%)”. The PS entry was “ND (^ <4%)”, the SH entry is reported as “ND (^ <4%)” and the UK entry was “ND (^ <4%)”. Moreover, the AP result (hydrochloride, 3 mg/kg) is given as “++++ (≥74%)”.
As to `CCc1scc2c1CC(NC)CC2` (single isomer, unassigned) [Compound 116, 3-ethyl-N-methyl-4,5,6,7-tetrahydro-2-benzothiophen-5-amine hydrochloride], the AD entry is given as “ND (^ <4%)”, the AG result was “ND (^ <4%)”, the AN entry is “ND (^ <4%)” and the AX entry was “ND (^ <4%)”. The CE entry was “ND (^ <4%)”, the HL entry is “ND (^ <4%)”, the MS entry is reported as “ND (^ <4%)” and the PS result was “ND (^ <4%)”. The SH entry was “ND (^ <4%)” and the UK result is listed as “ND (^ <4%)”. In addition, for the setting “hydrochloride”, the “MED (minimal effective dose)” value is less than 3 mpk. For the same compound, the AP entry (hydrochloride, 3 mg/kg) was “ND (^ <4%)”.
On to `CCc1sc(CC)c2c1CCC(NC)C2` (single isomer, unassigned) [Compound 117, 1,3-diethyl-N-methyl-4,5,6,7-tetrahydro-2-benzothiophen-5-amine hydrochloride], for which the minimal effective dose is more than 3 mg/kg, the AD result was “ND (^ <4%)”, the AG entry is “ND (^ <4%)” and the AN result is “ND (^ <4%)”. Further, the AP result was “ND (^ <4%)”, the AX result is recorded as “ND (^ <4%)”, the CE entry is listed as “ND (^ <4%)” and the HL result is “ND (^ <4%)”. The MS result is “ND (^ <4%)”, the PS entry is listed as “ND (^ <4%)” and the SH entry is reported as “ND (^ <4%)”. Besides, the UK entry (hydrochloride, 3 mg/kg) was “ND (^ <4%)”.
Consider `CCc1sc(CC)c2c1CCC(NC)C2` (single isomer, unassigned) [Compound 118, 1,3-diethyl-N-methyl-4,5,6,7-tetrahydro-2-benzothiophen-5-amine hydrochloride], for which the “MED (minimal effective dose)” value was more than 3 mpk, the AD entry is given as “ND (^ <4%)”, the AG result was “ND (^ <4%)” and the AN result is “ND (^ <4%)”. In addition, the AP result is listed as “ND (^ <4%)”, the AX result is given as “ND (^ <4%)”, the CE result was “ND (^ <4%)” and the HL result was “ND (^ <4%)”. Moreover, the MS result is listed as “ND (^ <4%)”, the PS result is recorded as “ND (^ <4%)” and the SH result is “ND (^ <4%)”. Also, the UK result (hydrochloride, 3 mg/kg) is listed as “+ (≥4%)”.
Turning to `CN(C)C1(C)CCc2ccsc2C1` (single isomer, unassigned) [Compound 119, N, N, 6-trimethyl-5,7-dihydro-4H-benzothiophen-6-amine hydrochloride], the minimal effective dose turned out to be 3 mg/kg, the AD entry is reported as “ND (^ <4%)”, the AG entry is on record as “ND (^ <4%)” and the AN entry is reported as “ND (^ <4%)”. Further, the AP result was “ND (^ <4%)”, the AX entry is listed as “++++ (≥74%)”, the CE result is “ND (^ <4%)” and the HL entry is “ND (^ <4%)”. Besides, the MS entry is on record as “ND (^ <4%)”, the PS result is “ND (^ <4%)”, the SH result is recorded as “ND (^ <4%)” and the UK result is “ND (^ <4%)”.
Take `CN(C)C1CCc2csc(C(F)(F)F)c2C1` (single isomer, unassigned) [Compound 120, N,N-dimethyl-3-(trifluoromethyl)-4,5,6,7-tetrahydro-2-benzothiophen-5-amine hydrochloride]: the minimal effective dose is 3 mg/kg, the AD result is listed as “ND (^ <4%)”, the AG entry is recorded as “ND (^ <4%)” and the AN entry is “ND (^ <4%)”. Besides, the AP result is “++++ (≥74%)”, the AX result is on record as “ND (^ <4%)”, the CE entry is “ND (^ <4%)” and the HL result is on record as “ND (^ <4%)”. For the same compound, the MS result was “ND (^ <4%)”, the PS entry is on record as “ND (^ <4%)”, the SH result is listed as “ND (^ <4%)” and the UK entry is “ND (^ <4%)”.
Regarding `CN(C)C1(C)CCc2cscc2C1` (single isomer, unassigned) [Compound 121, N,N, 5-trimethyl-6,7-dihydro-4H-2-benzothiophen-5-amine hydrochloride], the minimal effective dose came to 3 mg/kg, the AD result is listed as “ND (^ <4%)”, the AG result was “ND (^ <4%)” and the AN entry is “ND (^ <4%)”. The AP entry is reported as “+ (≥4%)”, the AX entry was “+ (≥4%)”, the CE result was “ND (^ <4%)” and the HL entry was “ND (^ <4%)”. For the same compound, the MS entry is “ND (^ <4%)”, the PS result is “ND (^ <4%)”, the SH entry is listed as “ND (^ <4%)” and the UK entry was “+++ (≥49%)”.
For `CC1(N)CCc2cscc2C1.Cl` (single isomer, unassigned) [Compound 122, 5-methyl-6,7-dihydro-4H-2-benzothiophen-5-amine hydrochloride], the minimal effective dose was determined as 1 mg/kg, the AG entry is listed as “ND (^ <4%)”, the AN result is given as “ND (^ <4%)” and the AP entry is given as “ND (^ <4%)”. In addition, the CE entry is on record as “ND (^ <4%)”, the MS entry is “ND (^ <4%)”, the SH entry is on record as “ND (^ <4%)” and the UK result was “ND (^ <4%)”. Further, under “hydrochloride, 3 mg/kg”, the AD entry was “+++ (≥49%)”, the AX result is given as “+ (≥4%)”, the HL entry is given as “ND (^ <4%)” and the PS result is “ND (^ <4%)”.
With `CC1(N)CCc2cscc2C1.Cl` (single isomer, unassigned) [Compound 123, 5-methyl-6,7-dihydro-4H-2-benzothiophen-5-amine hydrochloride], the “MED (minimal effective dose)” value was 1 mpk, the AG entry is on record as “ND (^ <4%)”, the AN result is recorded as “ND (^ <4%)” and the AP entry is “ND (^ <4%)”. Also, the CE result was “ND (^ <4%)”, the MS result is “ND (^ <4%)”, the SH result was “ND (^ <4%)” and the UK entry was “ND (^ <4%)”. Besides, under “hydrochloride, 3 mg/kg”, the AD entry is listed as “+ (≥4%)”, the AX result is “ND (^ <4%)”, the HL result is listed as “++ (≥24%)” and the PS entry is listed as “++ (≥24%)”.
For the compound `Cl.c1scc2c1CCC(NC1CC1)C2` (single isomer, unassigned) [Compound 124, N-cyclopropyl-4,5,6,7-tetrahydro-2-benzothiophen-5-amine hydrochloride], the AG entry was “ND (^ <4%)”, the AN entry is reported as “ND (^ <4%)”, the AP entry is “ND (^ <4%)” and the AX result was “ND (^ <4%)”. The CE entry is on record as “ND (^ <4%)”, the HL entry was “ND (^ <4%)”, the MS result is listed as “ND (^ <4%)” and the PS result is recorded as “ND (^ <4%)”. Moreover, the SH result is reported as “ND (^ <4%)”. For the same compound, the “MED (minimal effective dose)” value (hydrochloride) is given as 3 mpk. Under “hydrochloride, 3 mg/kg”, the AD result is reported as “ND (^ <4%)” and the UK entry was “+++ (≥49%)”.
On to `Cl.c1scc2c1CCC(NC1CC1)C2` (single isomer, unassigned) [Compound 125, N-cyclopropyl-4,5,6,7-tetrahydro-2-benzothiophen-5-amine hydrochloride], for which the AG result is “ND (^ <4%)”, the AN result is given as “ND (^ <4%)”, the AP entry is given as “ND (^ <4%)” and the AX result is “ND (^ <4%)”. In addition, the CE result was “ND (^ <4%)”, the HL entry is “ND (^ <4%)”, the MS entry is “ND (^ <4%)” and the PS result is listed as “ND (^ <4%)”. For the same compound, the SH result was “ND (^ <4%)”. The “MED (minimal effective dose)” value (hydrochloride) was determined as 0.3 mpk. For the same compound, for the setting “hydrochloride, 3 mg/kg”, the AD entry is “+++ (≥49%)” and the UK result is recorded as “ND (^ <4%)”.
With `Cl.FC1(F)CC(NC2CCc3cscc3C2)C1` (single isomer, unassigned) [Compound 126, N-(3,3-difluorocyclobutyl)-4,5,6,7-tetrahydro-2-benzothiophen-5-amine hydrochloride], the minimal effective dose was more than 30 mg/kg, the AD entry was “ND (^ <4%)”, the AG entry is given as “ND (^ <4%)” and the AN result was “ND (^ <4%)”. The AP entry is recorded as “ND (^ <4%)”, the AX result is “ND (^ <4%)”, the CE entry is on record as “ND (^ <4%)” and the HL entry is recorded as “ND (^ <4%)”. The MS entry is listed as “ND (^ <4%)”, the PS result was “ND (^ <4%)”, the SH result is listed as “ND (^ <4%)” and the UK entry is given as “ND (^ <4%)”.

These data come from US20260274814A1, “THIENYL COMPOUNDS FOR THE TREATMENT OF A CENTRAL NERVOUS SYSTEM DISEASE OR DISORDER” (Coreterra Therapeutics, Inc., priority 2023, published 2026).
